Assay results taken from article PMC6450621, “Changes of drug pharmacokinetics mediated by downregulation of kidney organic cation transporters Mate1 and Oct2 in a rat model of hyperuricemia” (PLoS ONE, 2019).
Values joined by “and” are separate entries in the source; they are usually repeats but may differ in a detail not shown here. Equal entries are not always repeated.

Key:
[1] = Plasma concentration of oxonic acid and adenine in hyperuricemic rats; type: in vivo, rat; conditions: hyperuricemic rats given oral oxonic acid […] and adenine 0.1 g/kg; detection limit 100 μM for oxonic acid
human MATE1 = target: T1, human MATE1 (Homo sapiens, UniProt Q96FL8); experiment: Uptake of [3H]MPP+ by MATE1-expressing HEK293 cells; type: cell-based; conditions: for MATE1-mediated uptake of [3H]MPP+, percentage of control: HEK293/hMATE1 minus mock, 0.25 nM [3H]MPP+, 0.5 min, 37°C; for MATE1-mediated uptake of MPP+, % of Control: after subtraction of uptake by mock cells; for MATE1-mediated uptake of MPP+, % of Control / C/M ratio of MPP+ uptake, MATE1-expressing cells: replicates and mean
T1 construct: expressed in transfected cells; host or cells: HEK293 (HEK293/hMATE1; gift from Dr. Inoue, Tokyo University of Pharmacy and Life Science)
T1 sequence (Q96FL8 1-570): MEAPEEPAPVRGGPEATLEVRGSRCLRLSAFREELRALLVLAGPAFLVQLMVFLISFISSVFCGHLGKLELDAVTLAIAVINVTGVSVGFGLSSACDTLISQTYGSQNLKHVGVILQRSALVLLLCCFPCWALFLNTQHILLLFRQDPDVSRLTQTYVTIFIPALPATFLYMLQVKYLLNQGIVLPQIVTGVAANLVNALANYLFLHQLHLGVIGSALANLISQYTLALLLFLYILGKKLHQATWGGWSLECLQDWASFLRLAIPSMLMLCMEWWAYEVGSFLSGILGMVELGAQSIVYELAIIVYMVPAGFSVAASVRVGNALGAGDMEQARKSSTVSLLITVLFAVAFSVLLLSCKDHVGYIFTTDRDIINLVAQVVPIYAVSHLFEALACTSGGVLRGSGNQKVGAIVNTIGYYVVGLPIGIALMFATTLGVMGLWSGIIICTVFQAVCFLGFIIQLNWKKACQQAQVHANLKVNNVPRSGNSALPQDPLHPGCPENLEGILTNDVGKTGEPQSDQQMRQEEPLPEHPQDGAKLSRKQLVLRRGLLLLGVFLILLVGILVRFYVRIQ
Description: HEK293 cells transfected with human MATE1 (HEK293/hMATE1) and vector alone (mock) were gifts from Dr. Inoue (Tokyo University of Pharmacy and Life Science). […] HEK293/mock and HEK293/hMATE1 cells were plated at a density of 3.0 × 10^5 cells/well on 24-well plates and cultured for two days before an uptake assay. […] Radioactivity was measured with a liquid scintillation counter (Hitachi Aloka Medical, Tokyo, Japan). Part of the lysate was used for the determination of total protein amount with Bio-Rad protein assay dye reagent. Uptake of MPP^+ was expressed as a cell-to-medium ratio (μL/mg protein) obtained by dividing the uptake amount by the concentration of substrate in the TM. Percentages of control were calculated as the ratio of MATE1-mediated uptake of MPP^+ that obtained after subtraction of the uptake of MPP^+ by mock cells in compound treated groups to that in control group.

Mock cells = experiment: Uptake of MPP+ by mock cells (background for MATE1-expressing cells); type: cell-based; conditions: replicates and mean
Description: Dunnett's test was used for uptake study to compare the control group to groups treated with drugs.
Percentages of control were calculated as the ratio of MATE1-mediated uptake of MPP^+ that obtained after subtraction of the uptake of MPP^+ by mock cells in compound treated groups to that in control group.

Structure (SMILES): O=C(O)c1nc(=O)[nH]c(=O)[nH]1 [oxonic acid]
- Plasma concentration [1]: lower than 100 μM
- MATE1-mediated uptake of [3H]MPP+, percentage of control (human MATE1; 50 μM test compound): 101.5%
- MATE1-mediated uptake of [3H]MPP+, percentage of control (human MATE1; 500 μM test compound): 98.2%
- Inhibitory effect on MATE1-mediated MPP+ uptake (human MATE1; 50 and 500 μM of each): No inhibitory effects
- MATE1-mediated uptake of MPP+, % of Control (human MATE1; Oxonic acid 50 µM): 93.3 % of Control and 90.1 % of Control and 121.0 % of Control
- MATE1-mediated uptake of MPP+, % of Control (human MATE1; Oxonic acid 50 µM, mean): 101.5 % of Control
- C/M ratio of MPP+ uptake, MATE1-expressing cells (human MATE1; Oxonic acid 50 µM): 177 µL/mg protein and 232 µL/mg protein and 183 µL/mg protein
- C/M ratio of MPP+ uptake, MATE1-expressing cells (human MATE1; Oxonic acid 50 µM, mean): 197 µL/mg protein
- MATE1-mediated uptake of MPP+, % of Control (human MATE1; Oxonic acid 500 µM): 118.1 % of Control and 83.7 % of Control and 92.8 % of Control
- MATE1-mediated uptake of MPP+, % of Control (human MATE1; Oxonic acid 500 µM, mean): 98.2 % of Control
- C/M ratio of MPP+ uptake, MATE1-expressing cells (human MATE1; Oxonic acid 500 µM): 173 µL/mg protein and 190 µL/mg protein and 235 µL/mg protein
- C/M ratio of MPP+ uptake, MATE1-expressing cells (human MATE1; Oxonic acid 500 µM, mean): 199 µL/mg protein
- C/M ratio of MPP+ uptake, Mock cells (Mock cells; Oxonic acid 50 µM): 18.7 µL/mg protein and 13.1 µL/mg protein and 12.3 µL/mg protein
- C/M ratio of MPP+ uptake, Mock cells (Mock cells; Oxonic acid 50 µM, mean): 14.7 µL/mg protein
- C/M ratio of MPP+ uptake, Mock cells (Mock cells; Oxonic acid 500 µM): 19.2 µL/mg protein and 28.0 µL/mg protein and 20.9 µL/mg protein
- C/M ratio of MPP+ uptake, Mock cells (Mock cells; Oxonic acid 500 µM, mean): 22.7 µL/mg protein
